From ChEMBL document CHEMBL5042473 (J Med Chem, 2022)
Blank lines part the entries; values can stand above or below the molecule they belong to.

Columns and labels:
[1] = molecular target: Mitogen-activated protein kinase 14 (Homo sapiens, UniProt Q16539); assay: Inhibition of human p38 MAPK alpha incubated for 1 hr by photometric method
[2] = Metabolic stability in human liver microsomes assessed as parent compound remaining incubated for 120 mins; format: ADME, Microsome; conditions: read-out: Stability
[3] = Ratio of drug concentration in RjOrl:Swiss (CD-1) mouse brain to plasma at 10mg/kg, iv administered measured after 2 hrs by LC-MS/MS analysis; format: ADME, organism-based; conditions: brain and plasma, read-out: BPR
CYP2C9 = CYP2C9 (Homo sapiens, UniProt P11712); assay: Inhibition of human recombinant CYP2C9 at 10 uM relative to control; format: ADME
CYP2D6 = CYP2D6 (Homo sapiens, UniProt P10635); assay: Inhibition of human recombinant CYP2D6 at 10 uM relative to control; format: ADME
CYP1A2 = molecular target: T1, CYP1A2 (Homo sapiens, UniProt P05177); assay: Inhibition of human recombinant CYP1A2 at 10 uM relative to control; format: ADME
T1 sequence (P05177 whole entry): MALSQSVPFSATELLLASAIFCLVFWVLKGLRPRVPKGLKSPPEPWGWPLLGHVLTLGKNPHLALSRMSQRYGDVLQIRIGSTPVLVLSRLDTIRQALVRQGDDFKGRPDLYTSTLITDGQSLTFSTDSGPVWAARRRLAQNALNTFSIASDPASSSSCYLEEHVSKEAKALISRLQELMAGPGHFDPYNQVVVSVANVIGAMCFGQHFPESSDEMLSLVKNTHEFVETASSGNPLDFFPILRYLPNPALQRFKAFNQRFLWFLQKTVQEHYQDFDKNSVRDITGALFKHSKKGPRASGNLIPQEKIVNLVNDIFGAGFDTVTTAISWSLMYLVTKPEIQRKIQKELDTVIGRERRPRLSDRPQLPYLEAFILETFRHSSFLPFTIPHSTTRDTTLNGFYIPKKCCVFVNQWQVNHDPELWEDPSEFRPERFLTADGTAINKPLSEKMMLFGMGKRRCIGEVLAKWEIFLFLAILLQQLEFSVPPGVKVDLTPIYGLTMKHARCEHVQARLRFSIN

hERG = hERG (Homo sapiens, UniProt Q12809); assay: Inhibition of hERG at 10 uM by fluorimetric analysis relative to control; format: toxicity
CYP3A4 = CYP3A4 (Homo sapiens, UniProt P08684); assay: Inhibition of human recombinant CYP3A4 at 10 uM relative to control; format: ADME
[4] = Drug uptake in RjOrl:Swiss (CD-1) mouse brain at 10 mg/kg, iv administered measured after 2 hrs by LC-MS/MS analysis; format: ADME, organism-based; conditions: read-out: Ct
CYP2C19 = CYP2C19 (Homo sapiens, UniProt P33261); assay: Inhibition of human recombinant CYP2C19 at 10 uM relative to control; format: ADME
[5] = Drug uptake in mouse C57BL/6 brain at 0.4 mg/kg,iv measured upto 240 mins by LC-MS/MS analysis; format: ADME, organism-based; conditions: in vivo, 4 h
Splenocyte = assay: Cytotoxicity against Balb/c mouse splenocytes assessed as metabolic activity at 1 to 10 nM incubated for 24 hrs by MTT assay; format: toxicity, cell-based; conditions: 0.01 µM, dose 1-10 nM
[6] = Cytotoxicity against Balb/c mouse splenocytes assessed as metabolic activity at 100 nM incubated for 24 hrs by MTT assay relative to LPS-stimulated splenocytes; format: toxicity, cell-based, Splenocyte; conditions: read-out: Activity
Blood = assay: Antiinflammatory activity against LPS-stimulated C57BL/6 mouse whole blood assessed as reduction in TNF-alpha at 1 nM incubated for 24 hrs by ELISA based method; format: functional; set-up: scale not given: the % may be the effect or the level left
[7] = Drug uptake in mouse C57BL/6 brain at 0.4 mg/kg,po measured upto 240 mins by LC-MS/MS analysis; format: ADME, organism-based; conditions: in vivo, 4 h

Mitogen-activated protein kinase 14, sequence (Q16539 whole entry): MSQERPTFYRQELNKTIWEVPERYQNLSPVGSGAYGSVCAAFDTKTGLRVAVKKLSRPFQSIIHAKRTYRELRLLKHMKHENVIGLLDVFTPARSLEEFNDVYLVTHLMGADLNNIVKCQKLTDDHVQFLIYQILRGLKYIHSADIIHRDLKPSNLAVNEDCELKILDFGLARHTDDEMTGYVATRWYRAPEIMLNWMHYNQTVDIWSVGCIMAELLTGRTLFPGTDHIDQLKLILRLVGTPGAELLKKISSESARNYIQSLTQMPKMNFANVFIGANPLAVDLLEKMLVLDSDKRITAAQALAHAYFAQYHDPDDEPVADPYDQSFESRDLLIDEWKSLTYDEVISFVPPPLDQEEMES
CYP2D6, sequence (P10635 whole entry): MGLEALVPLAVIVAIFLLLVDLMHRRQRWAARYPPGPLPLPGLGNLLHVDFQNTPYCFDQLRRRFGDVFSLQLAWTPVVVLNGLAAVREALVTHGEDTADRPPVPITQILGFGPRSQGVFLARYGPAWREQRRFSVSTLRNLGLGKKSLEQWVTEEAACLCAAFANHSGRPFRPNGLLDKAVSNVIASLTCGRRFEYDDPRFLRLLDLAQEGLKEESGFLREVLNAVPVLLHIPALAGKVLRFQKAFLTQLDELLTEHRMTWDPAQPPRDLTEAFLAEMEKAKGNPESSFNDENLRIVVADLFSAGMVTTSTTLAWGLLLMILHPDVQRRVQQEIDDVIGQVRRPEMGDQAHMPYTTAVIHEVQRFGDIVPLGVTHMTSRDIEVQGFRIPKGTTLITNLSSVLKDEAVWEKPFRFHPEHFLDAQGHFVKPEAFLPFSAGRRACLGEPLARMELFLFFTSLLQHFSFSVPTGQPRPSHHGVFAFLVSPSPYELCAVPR
hERG, sequence (Q12809 whole entry): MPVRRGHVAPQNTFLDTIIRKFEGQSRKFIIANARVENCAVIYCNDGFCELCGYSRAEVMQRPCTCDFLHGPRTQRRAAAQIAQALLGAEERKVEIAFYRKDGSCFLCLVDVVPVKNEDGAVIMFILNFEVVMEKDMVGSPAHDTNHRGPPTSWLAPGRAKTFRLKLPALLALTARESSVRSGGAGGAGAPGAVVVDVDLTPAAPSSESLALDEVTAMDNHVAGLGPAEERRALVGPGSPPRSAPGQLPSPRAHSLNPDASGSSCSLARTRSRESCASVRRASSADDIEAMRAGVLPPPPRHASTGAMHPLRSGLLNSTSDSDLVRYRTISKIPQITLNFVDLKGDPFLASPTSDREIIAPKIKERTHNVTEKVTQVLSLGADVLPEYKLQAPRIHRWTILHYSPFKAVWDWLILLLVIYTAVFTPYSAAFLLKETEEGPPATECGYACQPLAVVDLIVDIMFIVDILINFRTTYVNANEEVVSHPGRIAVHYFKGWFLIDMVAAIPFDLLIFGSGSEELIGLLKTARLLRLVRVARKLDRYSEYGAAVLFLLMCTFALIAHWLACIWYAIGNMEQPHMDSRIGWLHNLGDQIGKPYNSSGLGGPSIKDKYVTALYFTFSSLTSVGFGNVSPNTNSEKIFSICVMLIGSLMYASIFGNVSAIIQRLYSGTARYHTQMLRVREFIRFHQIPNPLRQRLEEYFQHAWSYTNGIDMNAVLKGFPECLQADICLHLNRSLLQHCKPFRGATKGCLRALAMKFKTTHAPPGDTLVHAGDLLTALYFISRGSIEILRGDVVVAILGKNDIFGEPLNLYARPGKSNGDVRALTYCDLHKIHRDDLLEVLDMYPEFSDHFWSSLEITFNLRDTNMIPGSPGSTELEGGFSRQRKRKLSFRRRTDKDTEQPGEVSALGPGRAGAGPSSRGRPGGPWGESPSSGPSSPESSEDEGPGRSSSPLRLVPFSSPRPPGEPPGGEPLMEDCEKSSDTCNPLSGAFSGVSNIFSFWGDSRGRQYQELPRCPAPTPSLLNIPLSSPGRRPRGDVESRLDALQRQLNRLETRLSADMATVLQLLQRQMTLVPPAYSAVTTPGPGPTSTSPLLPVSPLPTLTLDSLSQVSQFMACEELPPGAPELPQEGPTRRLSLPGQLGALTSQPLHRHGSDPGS
CYP3A4, sequence (P08684 whole entry): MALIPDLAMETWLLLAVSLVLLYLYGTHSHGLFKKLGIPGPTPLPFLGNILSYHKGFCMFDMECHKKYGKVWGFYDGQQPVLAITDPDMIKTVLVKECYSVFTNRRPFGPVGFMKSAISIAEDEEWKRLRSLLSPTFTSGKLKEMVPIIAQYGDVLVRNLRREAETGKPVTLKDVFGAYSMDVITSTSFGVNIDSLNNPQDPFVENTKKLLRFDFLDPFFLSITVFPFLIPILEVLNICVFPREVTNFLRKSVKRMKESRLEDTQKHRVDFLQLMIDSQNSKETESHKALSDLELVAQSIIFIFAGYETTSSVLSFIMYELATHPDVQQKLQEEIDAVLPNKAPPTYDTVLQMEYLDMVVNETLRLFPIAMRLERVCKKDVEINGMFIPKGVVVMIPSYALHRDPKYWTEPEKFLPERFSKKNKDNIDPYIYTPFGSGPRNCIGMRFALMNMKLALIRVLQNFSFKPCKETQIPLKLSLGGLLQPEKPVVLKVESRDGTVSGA
CYP2C19, sequence (P33261 whole entry): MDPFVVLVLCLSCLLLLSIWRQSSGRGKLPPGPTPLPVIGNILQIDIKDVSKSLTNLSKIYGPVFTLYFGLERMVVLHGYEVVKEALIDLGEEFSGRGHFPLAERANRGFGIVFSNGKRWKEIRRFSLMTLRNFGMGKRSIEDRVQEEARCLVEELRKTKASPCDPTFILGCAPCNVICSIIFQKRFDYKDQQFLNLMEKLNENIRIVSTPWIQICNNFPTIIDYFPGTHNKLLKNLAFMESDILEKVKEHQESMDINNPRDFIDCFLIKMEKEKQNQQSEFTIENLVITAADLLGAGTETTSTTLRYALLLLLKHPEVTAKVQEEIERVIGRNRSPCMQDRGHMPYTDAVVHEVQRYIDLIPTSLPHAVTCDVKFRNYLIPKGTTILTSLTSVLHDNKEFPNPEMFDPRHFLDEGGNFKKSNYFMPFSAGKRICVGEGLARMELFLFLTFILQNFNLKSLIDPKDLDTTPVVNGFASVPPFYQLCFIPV
CYP2C9, sequence (P11712 whole entry): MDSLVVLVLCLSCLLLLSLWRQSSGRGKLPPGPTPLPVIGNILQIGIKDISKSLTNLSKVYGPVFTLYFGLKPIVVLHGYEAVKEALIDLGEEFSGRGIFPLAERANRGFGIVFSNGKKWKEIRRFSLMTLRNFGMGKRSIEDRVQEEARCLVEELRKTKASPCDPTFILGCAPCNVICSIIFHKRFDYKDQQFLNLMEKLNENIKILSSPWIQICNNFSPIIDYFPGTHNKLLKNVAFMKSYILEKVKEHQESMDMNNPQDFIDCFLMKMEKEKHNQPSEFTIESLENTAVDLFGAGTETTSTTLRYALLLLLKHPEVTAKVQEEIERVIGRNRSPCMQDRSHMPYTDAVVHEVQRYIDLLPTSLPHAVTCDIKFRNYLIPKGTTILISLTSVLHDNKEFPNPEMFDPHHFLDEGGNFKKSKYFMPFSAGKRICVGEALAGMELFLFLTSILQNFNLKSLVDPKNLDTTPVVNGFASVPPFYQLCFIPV

Compound: COC(=O)CC[C@H](NC(=O)c1ccc2c(c1)C(=O)c1ccc(Nc3ccc(F)cc3F)cc1CC2)C(=O)OC
IC50 [1]: 1.2 nM

Compound: O=C(NCCc1c[nH]c2ccccc12)c1ccc2c(c1)C(=O)c1ccc(Nc3ccc(F)cc3F)cc1CC2
IC50 [1]: 28 nM
remaining at 2 h [2]: 71%

Compound: Nc1ccccc1Nc1ccc2c(c1)CCc1ccc(C(=O)NCCN3CCNCC3)cc1C2=O
IC50 [1]: 18 nM

Compound: O=C(NCCCc1ccccc1)c1ccc2c(c1)C(=O)c1ccc(Nc3ccc(F)cc3F)cc1CC2
IC50 [1]: 50 nM

Compound: COC(=O)[C@H](CCSC)NC(=O)c1ccc2c(c1)C(=O)c1ccc(Nc3ccccc3N)cc1CC2
IC50 [1]: 13 nM
remaining at 2 h [2]: 0%

Compound: CN(CCc1ccccc1)C(=O)c1ccc2c(c1)C(=O)c1ccc(Nc3ccc(F)cc3F)cc1CC2
IC50 [1]: 390 nM

Compound: Nc1ccccc1Nc1ccc2c(c1)CCc1ccc(C(=O)NCCO)cc1C2=O
IC50 [1]: 14 nM
remaining at 2 h [2]: 99%

Compound: COC(=O)[C@@H](N)CCCCNC(=O)c1ccc2c(c1)C(=O)c1ccc(Nc3ccccc3N)cc1CC2
IC50 [1]: 12 nM

Compound: O=C(NC(CO)(CO)CO)c1ccc2c(c1)C(=O)c1ccc(Nc3ccc(F)cc3F)cc1CC2
IC50 [1]: 3 nM
Drug uptake [5]: Not Active
Activity (Splenocyte): Non-Toxic
viability at 24 h, 0.1 µM [6]: 66%
Activity (Blood): 5%
Drug uptake [7]: Not Active

Compound: CC(NC(=O)c1ccc2c(c1)C(=O)c1ccc(Nc3ccc(F)cc3F)cc1CC2)C1CCCCC1 (stereo unspecified)
IC50 [1]: 22 nM

Compound: O=C(NC1(c2ccccc2)CC1)c1ccc2c(c1)C(=O)c1ccc(Nc3ccc(F)cc3F)cc1CC2
IC50 [1]: 2.5 nM
Kp at 2 h [3]: 0.51
concentration at 2 h [4]: 49 ng/g

Compound: NCCNC(=O)c1ccc2c(c1)C(=O)c1ccc(Nc3ccc(F)cc3F)cc1CC2
IC50 [1]: 2.5 nM
Drug uptake [5]: Not Active
Activity (Splenocyte): Non-Toxic
viability at 24 h, 0.1 µM [6]: 66%
Activity (Blood): 5%
Drug uptake [7]: Not Active

Compound: Nc1ccccc1Nc1ccc2c(c1)CCc1ccc(C(=O)NCCCC[C@H](N)C(=O)O)cc1C2=O
IC50 [1]: 17 nM

Compound: COC(=O)[C@@H](N)CCCCNC(=O)c1ccc2c(c1)C(=O)c1ccc(Nc3ccc(F)cc3F)cc1CC2
IC50 [1]: 2.1 nM

Compound: Nc1ccccc1Nc1ccc2c(c1)CCc1ccc(C(=O)N[C@@H](CCC(=O)O)C(=O)O)cc1C2=O
IC50 [1]: 27 nM

Compound: NC(=O)c1ccc2c(c1)C(=O)c1ccc(Nc3ccccc3N)cc1CC2
IC50 [1]: 6.1 nM

Compound: NCCNC(=O)c1ccc2c(c1)C(=O)c1ccc(Nc3ccccc3N)cc1CC2
IC50 [1]: 5.3 nM

More lines, main results first:

IC50 [1]: 5.4 nM
remaining at 2 h [2]: 12%
Compound: COC(=O)[C@@H](N)CNC(=O)c1ccc2c(c1)C(=O)c1ccc(Nc3ccc(F)cc3F)cc1CC2

IC50 [1]: 3.5 nM
Kp at 2 h [3]: 0.01
Compound: N[C@@H](CCCCNC(=O)c1ccc2c(c1)C(=O)c1ccc(Nc3ccc(F)cc3F)cc1CC2)C(=O)O

IC50 [1]: 7.8 nM
Compound: O=C(NCCc1ccc(O)cc1)c1ccc2c(c1)C(=O)c1ccc(Nc3ccc(F)cc3F)cc1CC2

Kp at 2 h [3]: 0.003
Compound: N[C@@H](CNC(=O)c1ccc2c(c1)C(=O)c1ccc(Nc3ccc(F)cc3F)cc1CC2)C(=O)O

inhibition at 10 µM (CYP2C9): 88.7%
inhibition at 10 µM (CYP2D6): 18.3%
IC50 [1]: 5.9 nM
inhibition at 10 µM (CYP1A2): 0%
Kp at 2 h [3]: 0.16
inhibition at 10 µM (CYP3A4): 83.6%
concentration at 2 h [4]: 68 ng/g
remaining at 2 h [2]: 47%
inhibition at 10 µM (CYP2C19): 93.6%
Compound: O=C(NCCN1CC2(COC2)C1)c1ccc2c(c1)C(=O)c1ccc(Nc3ccc(F)cc3F)cc1CC2
inhibition at 10 µM (hERG): 76.6%

IC50 [1]: 6.2 nM
remaining at 2 h [2]: 95%
Compound: NC(=O)CCNC(=O)c1ccc2c(c1)C(=O)c1ccc(Nc3ccc(F)cc3F)cc1CC2

IC50 [1]: 3.5 nM
Compound: O=C(NCC(F)(F)F)c1ccc2c(c1)C(=O)c1ccc(Nc3ccc(F)cc3F)cc1CC2

IC50 [1]: 21 nM
Compound: O=C(NCCc1ccc(F)cc1)c1ccc2c(c1)C(=O)c1ccc(Nc3ccc(F)cc3F)cc1CC2

IC50 [1]: 5.6 nM
remaining at 2 h [2]: 95%
Compound: O=C(NCCc1c[nH]cn1)c1ccc2c(c1)C(=O)c1ccc(Nc3ccc(F)cc3F)cc1CC2

IC50 [1]: 5.2 nM
remaining at 2 h [2]: 13%
Compound: O=C(NO)c1ccc2c(c1)C(=O)c1ccc(Nc3ccc(F)cc3F)cc1CC2
